Data taken from US7141249B2, “Rapidly soluble drug composition” (Dainippon Sumitomo Pharma Co., Ltd., priority 1997, dated 2006).

Columns and labels:
[1] = Water-solubility of AS-3201; type: physicochemical; conditions: in the range of low pH
Source text: The “micronized AS-3201” means powders of AS-3201 having a mean particle size of less than about 20 μm. The “mean particle size” means a particle size of being at 50% in cumulative particle distribution on weight or volume basis (ref., HA Lieberman et al., “Pharmaceutical Dosage Forms: Tablets”, Marcel Dekker, Inc., New York, 1990, vol. 2, 174–186; Kouichi IINOYA (edit.) “Handbook of Powder and Particle Measurement (in Japanese)”, The NIKKAN KOGYO SHINBUN LTD., 1981, 29–36). The “dissolution test” means a test in which the dissolution of AS-3201 from test pharmaceutical compositions in an amount corresponding to 20 mg of AS-3201 is evaluated according to Paddle method (50 rpm) specified in the Twelfth Edition of the Pharmacopoeia of Japan, using a 0.2 M phosphate buffer (pH 6.5, 900 ml) as a test solution, and assaying AS-3201 by spectrophotometry at 300 nm. The “pKa1” means an acid dissociation exponent of an acidic substance at 25° C. in an infinitely diluted solution thereof. When an acidic substance is a polybasic acid, it means an acid dissociation exponent at the first step of dissociation. The “water-solubility” means a maximum amount of a solute being dissolved in 100 ml of water. The term “about” is used with the intention of including values following said term.

Acidity (pKa) of AS-3201 = type: physicochemical
[2] = Plasma concentration after administration; type: in vivo; conditions: among the individuals to be administered
aldose reductase = aldose reductase (Homo sapiens, UniProt P15121); conditions: disclosed in earlier patents (U.S. Pat. No. 5,258,382, JP-A-6-192222, JP-A-8-176105); cited from earlier work

water-solubility [1]: several
pKa (Acidity (pKa) of AS-3201): 5.6 to 5.8
plasma concentration of AS-3201 (variation among individuals) [2]: varies widely
Compound: O=C1C[C@@]2(C(=O)N1)C(=O)N(Cc1ccc(Br)cc1F)C(=O)c1cccn12 [AS-3201, (R)-2-(4-bromo-2-fluorobenzyl)-1,2,3,4-tetrahydropyrrolo[1,2-a]pyrazine-4-spiro-3′-pyrrolidine-1,2′,3,5′-tetrone]
aldose reductase inhibitory activity (aldose reductase): potent
